Reference: patent publication US12390423B2 (priority 2019, dated 2025)

Legend:
INS-1 (832/13) cells [1] = assay: Cell viability (propidium iodide, flow cytometry) in INS-1 (832/13) cells; assay type: cell-based; settings: AvoB 24 h
Protocol: Quantitative analysis of cell death was evaluated by flow cytometry using propidium iodide staining (Biovision, Mountainview, CA), where specified, according to the manufacturer's protocol and as previously described^28. Viable cells were identified as PI negative (PI−).

C2C12 myotubes [2] = assay: Mitochondrial ROS (MitoSOX) and membrane potential (JC-1) in C2C12 myotubes; assay type: cell-based, mouse; settings: 25 μM AvoB, 0.5 mM palmitate, 24 h
Protocol: (§1) For all ROS studies, INS-1 (832/13) cells and C2C12 myotubes were treated with or without palmitate and FAO inhibitors for 24 h in low glucose cell culture media as described for the FAO assay. After treatment, cells were trypsinized and re-suspended in PBS containing 5 μM of the fluorescent dye MitoSOX® (Molecular Probes, Invitrogen) and allowed to incubate for 5-15 minutes in a humidified atmosphere containing 5% CO2 at 37° C. Cells were then washed in PBS, placed in a 96 well plate and fluorescence was measured by flow cytometry. ROS was quantified by normalizing the mean fluorescence values of live gated cells to vehicle control. Mitochondrial membrane potential (MMP) in INS-1 (832/13) and C2C12 myotubes was measured using the cationic fluorescent dye JC-1 (Molecular Probes). […] JC-1 fluoresces green in the cytosol where it exists as a monomer, after entering the mitochondria JC-1 monomers form J aggregates and fluoresce red, thus the red/green fluorescence ratio is used to determine MMP. […] Cells were then washed in PBS, placed in a 96 well plate and fluorescence was measured by flow cytometry. MMP was quantified by normalizing the mean fluorescence values of live gated cells to vehicle control. […] Cells were treated, washed and collected as described and incubated with 0.35 μM NAO and green fluorescence was measured using flow cytometry. […]

INS-1 (832/13) cells [3] = assay: Cellular ATP content in INS-1 (832/13) cells; assay type: cell-based, rat; settings: 25 μM AvoB, palmitate challenged, 24 h
Protocol: (§2) Total cellular ATP content was determined using the ATP bioluminescent assay kit (Calbiochem, 119107). Briefly, cells were seeded in white walled 96-well plates (1.2×10^4 cells/well for INS-1 and 2×10^4 cells/well for C2C12) and treated for 24 h (C2C12 cells were differentiated for 5 days prior to treatments whereas INS-1 cells were treated 24 h after seeding). After treatment, culture media was removed, and cells were lysed with nucleotide releasing buffer with gentle shaking for 5 min. ATP monitoring enzyme was then added to cell lysates and plates and luminescence was read in a Biotek Synergy HT spectrophotometer (Biotek; Winooski, VT).

C2C12 myotubes [4] = assay: Glucose oxidation and 2-NBDG glucose uptake in C2C12 myotubes; assay type: cell-based, mouse
Protocol: C2C12 myotubes and INS-1 (832/13) cells treated as in the FAO assays described above and then incubated with D-[^14C(U)]-glucose (0.58 μC/mL) and unlabeled glucose (final glucose concentration 200 μM) for 4 h subsequent to which [^14C]—CO2 (representing complete glucose oxidation) and ASMs (representing incomplete glucose oxidation) were captured and quantified as described in the FAO method. For C2C12 myotubes, glucose oxidation and uptake was measured with and without a 30 min pre-incubation with 100 nM insulin to determine basal and insulin-mediated glucose oxidation or uptake, respectively.
To measure glucose uptake in C2C12 myotubes, a fluorescent D-glucose analog 2-(N-[7-nitrobenz-2-oxa-1,3-diazol-4-yl]amino)-2-deoxy-D-glucose (2-NBDG) was utilized. Briefly, myotubes were treated for 24 h with test compound after which they were washed twice with PBS and starved for 1 h in serum and glucose free DMEM. Following starvation, 100 nM insulin was added for 30 min after which 60 μM 2-NBDG was added to each well and allowed to incubate for 30 min. The 2-NBDG uptake reaction was then stopped by removing the incubation medium and washing the cells twice with PBS after which the cells were trypsinized and collected for flow cytometry analysis (Guava 8HT; EMD Millipore, Billerica, MA).

INS-1 (832/13) cells [5] = assay: Fatty acid oxidation ([1-14C]-palmitate) in INS-1 (832/13) cells; assay type: cell-based, rat; settings: 25 μM AvoB, 0.5 mM palmitate-BSA/1 mM L-carnitine, 24 h
Protocol: FAO in cell lines was determined using established methods. […] [1-^14C]-palmitate was prepared and applied to cells as follows: purchased stock supplied in ethanol (PerkinElmer, MA, USA) was dried in vacuo and then re-suspended in a solution containing unlabeled carrier in BSA to yield a mixture of 7% BSA [w/v], 2.5 mM palmitate with [1-^14C]-palmitate at a final concentration of 10 μCi/mL. Following a 16 hour incubation at 37° C., the solution containing radiolabeled palmitate was diluted with respective serum free cell culture media (low glucose RPMI media for INS-1 (832/13) cells and low glucose DMEM for C2C12 myotubes) containing 1 mM L-carnitine to a final concentration of 0.3% BSA, 100 μM palmitate, and 0.4 μCi/mL [1-^14C]-palmitate. Following incubation of treated cells with [1-^14C]-palmitate, 400 μL of well media was transferred to acidification vials containing perchloric acid and capped with CO2 filter traps impregnated with 1M NaOH. […] The CO2 trap was transferred to scintillation vials containing 4 mL of scintillation fluid and complete FAO was quantified using a Tri-Carb 2910 TR liquid scintillation analyzer (PerkinElmer). The amount of radioactivity in the media was also determined after pelleting cells and debris (14,000×g, 10 min); this quantified acid soluble metabolites (ASMs), an indirect measure of incomplete FAO.

C2C12 myotubes [6] = assay: Cellular ATP content in C2C12 myotubes; assay type: cell-based, mouse; settings: 0.5 mM palmitate 24 h, AVO 25 μM, DCA 1 mM, TRI 25 μM
Protocol: as §2

INS-1 (832/13) cells [7] = assay: Mitochondrial ROS (MitoSOX) and membrane potential (JC-1) in INS-1 (832/13) cells; assay type: cell-based, rat; settings: 25 μM AvoB, 0.5 mM palmitate, 24 h
Protocol: as §1

Substance: avocatin B [AvoB]
- Cell viability (INS-1 (832/13) cells [1]): no effect on cell viability
- Mitochondrial membrane potential (MMP, JC-1) (C2C12 myotubes [2]): lowers palmitate induced increases
- Mitochondrial superoxide levels (MitoSOX Red) (C2C12 myotubes [2]): lowers palmitate induced increases in mitochondrial superoxide levels
- Total cellular ATP content (INS-1 (832/13) cells [3]): restores total cellular ATP content
- Insulin stimulated glucose uptake (2-NDBG) (C2C12 myotubes [4]; 25 μM AVO, 0.5 mM palmitate 24 h, vs palmitate only): increased glucose uptake compared to palmitate only treated cells
- Basal and insulin stimulated glucose oxidation (D-[14C(U)]-glucose to CO2) (C2C12 myotubes [4]; 25 μM AvoB, excess palmitate, 24 h): increased basal and insulin stimulated glucose oxidation
- Complete FAO ([1-14C]-palmitate oxidation to CO2) (INS-1 (832/13) cells [5]): inhibited complete FAO
- Total cellular ATP content (C2C12 myotubes [6]): restored cellular ATP content to that of control cells
- Mitochondrial membrane potential (MMP, JC-1) (INS-1 (832/13) cells [7]): lowers palmitate-induced increases
- Mitochondrial superoxide levels (MitoSOX Red) (INS-1 (832/13) cells [7]): lowers palmitate-induced increases in mitochondrial superoxide levels
